Data reported in US10975068B2, “6-aminopyridin-3-yl thiazoles as modulators of RORγT” (Janssen Pharmaceutica NV, priority 2016, dated 2021).
Like-named read-outs stand apart in the source and are kept apart here.

Legend:
[1] = biological target: human RORγt ligand binding domain (RORγt LBD) (Homo sapiens (Human), UniProt P51449); assay: RORγt ThermoFluor® assay (thermal shift binding); settings: read-out: ThermoFluor® Assay, Kd
In short: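 His-tagged human RORγt LBD (0.065 mg/mL) with 60 μM 1,8-ANS in 100 mM Hepes pH 7.0, 10 mM NaCl, 2.5 mM GSH, 0.002% Tween-20 was heated at 1 °C/min.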

full-length human RORγt = full-length human RORγt (Homo sapiens (Human), UniProt P51449); assay: RORγt (full-length human) reporter assay, Conditions B or C; format: cell-based; settings: for RORγt (FL) Reporter Assay B or C, % inhibition (value marked *): marked *: footnote not given; for IC50: read-out: RORγt (FL) Reporter Assay B or C, IC50; for inhibition at 3 µM: at 3 μM compound concentration, read-out: RORγt (FL) Reporter Assay B or C, % inhibition
full-length human RORγt, sequence (P51449 other isoform, or with tags, fused parts or gaps): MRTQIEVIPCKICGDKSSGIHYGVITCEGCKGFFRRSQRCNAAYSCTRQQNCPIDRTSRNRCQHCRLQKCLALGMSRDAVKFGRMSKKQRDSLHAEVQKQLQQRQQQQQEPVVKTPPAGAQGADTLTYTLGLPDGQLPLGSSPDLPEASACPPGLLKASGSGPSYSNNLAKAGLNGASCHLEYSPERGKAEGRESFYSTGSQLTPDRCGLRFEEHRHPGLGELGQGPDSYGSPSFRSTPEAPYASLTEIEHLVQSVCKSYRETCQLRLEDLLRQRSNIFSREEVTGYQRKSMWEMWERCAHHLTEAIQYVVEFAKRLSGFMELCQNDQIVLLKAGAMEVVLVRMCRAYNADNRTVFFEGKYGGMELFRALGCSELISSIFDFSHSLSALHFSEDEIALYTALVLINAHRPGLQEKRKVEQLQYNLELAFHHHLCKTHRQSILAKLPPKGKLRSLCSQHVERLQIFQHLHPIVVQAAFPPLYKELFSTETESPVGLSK
In short: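 HEK293T cells transiently co-transfected with GAL4-DBD–full-length human RORγt (nt 142-1635, NM_001001523.1) plus GAL4-firefly and CMV-Renilla luciferase reporters; compounds added 4-6 h post-transfection for 16-20 h in 1.3% FBS, 0.1% DMSO. Firefly signal normalized to DMSO and saturating reference compound, then to Renilla; IC50 from concentration plots.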

human RORγt ligand binding domain (RORγt LBD), sequence (P51449 other isoform, or with tags, fused parts or gaps): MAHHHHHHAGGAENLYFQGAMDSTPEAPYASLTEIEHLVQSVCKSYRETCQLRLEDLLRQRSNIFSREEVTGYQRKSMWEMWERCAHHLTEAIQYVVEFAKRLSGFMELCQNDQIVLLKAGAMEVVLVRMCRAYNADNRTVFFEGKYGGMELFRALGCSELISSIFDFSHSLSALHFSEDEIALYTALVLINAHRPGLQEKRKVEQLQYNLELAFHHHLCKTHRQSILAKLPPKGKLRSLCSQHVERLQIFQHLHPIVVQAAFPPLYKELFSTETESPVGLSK

| Kd [1] [nM] | RORγt (FL) Reporter Assay B or C, % inhibition (value marked *) (full-length human RORγt; Conditions B or C) | IC50 (full-length human RORγt; Conditions B or C) [nM] | inhibition at 3 µM (full-length human RORγt) [%] | IC50 (full-length human RORγt) [nM] | Compound |
| --- | --- | --- | --- | --- | --- |
| 0.2 | 110* % | 13 | – | – | CC[C@H](Nc1cc(C(F)(F)F)c(-c2sc(C(=O)NCC(C)(C)O)nc2C(=O)N2CCCC[C@@H]2C)cn1)C(F)(F)F [Example 112, N-(2-Hydroxy-2-methylpropyl)-4-((S)-2-methylpiperidine-1-carbonyl)-5-(6-(((S)-1,1,1-trifluorobutan-2-yl)amino)-4-(trifluoromethyl)pyridin-3-yl)thiazole-2-carboxamide] |
| 1.6 | 122* % | 47 | – | – | C[C@H](O)[C@H](C)NC(=O)c1nc(C(=O)N2CCC[C@@H]2C)c(-c2cnc(NC(C)(C)C)cc2C(F)(F)F)s1 (relative stereo) [Example 236, 5-(6-(tert-Butylamino)-4-(trifluoromethyl)pyridin-3-yl)-N-((2S*,3S*)-3-hydroxybutan-2-yl)-4-((S)-2-methylpyrrolidine-1-carbonyl)thiazole-2-carboxamide] |
| 3.8 | – | – | 101 | 60 | CC[C@H](Nc1cc(C(F)F)c(-c2sc(C(=O)N[C@@H]3CC[C@H]3O)nc2C(=O)N2CCC[C@@H]2C)cn1)C(F)(F)F (relative stereo) [Example 376, 5-(4-(Difluoromethyl)-6-(((S)-1,1,1-trifluorobutan-2-yl)amino)pyridin-3-yl)-N-((1R*,2R*)-2-hydroxycyclobutyl)-4-((S)-2-methylpyrrolidine-1-carbonyl)thiazole-2-carboxamide] |
| 3.8 | – | – | 98 | 46 | C[C@H]1CCCN1C(=O)c1nc(C(=O)N[C@H]2C[C@H](O)C2)sc1-c1cnc(N[C@H](C2CC2)C(F)(F)F)cc1C(F)F [Example 320, 5-(6-(((R)-1-Cyclopropyl-2,2,2-trifluoroethyl)amino)-4-(difluoromethyl)pyridin-3-yl)-N-((1r,3S)-3-hydroxycyclobutyl)-4-((S)-2-methylpyrrolidine-1-carbonyl)thiazole-2-carboxamide] |
| 0.28 | 100* % | 23 | – | – | CC[C@H](Nc1cc(C(F)F)c(-c2sc(C(=O)N[C@@H](C)C(C)(C)O)nc2C(=O)N2CCCC[C@@H]2C)cn1)C(F)(F)F [Example 247, 5-[4-(Difluoromethyl)-6-[[(1S)-1-(trifluoromethyl)propyl]amino]-3-pyridyl]-N-[(1S)-2-hydroxy-1,2-dimethyl-propyl]-4-[(2S)-2-methylpiperidine-1-carbonyl]thiazole-2-carboxamide] |
| 15 | – | – | 88 | 740 | C[C@H]1CCCN1C(=O)c1nc(C(=O)NCc2nnn[nH]2)sc1-c1cnc(NC(C)(C)C)cc1C(F)(F)F [Example 303, (S)—N-((1H-Tetrazol-5-yl)methyl)-5-(6-(tert-butylamino)-4-(trifluoromethyl)pyridin-3-yl)-4-(2-methylpyrrolidine-1-carbonyl)thiazole-2-carboxamide] |
| 7.4 | – | – | 100 | 40 | C[C@H]1CCCN1C(=O)c1nc(C(=O)NCC(C)(C)O)sc1-c1cnc(NCC2(C)CC2)cc1C(F)(F)F [Example 278, N-(2-Hydroxy-2-methyl-propyl)-5-[6-[(1-methylcyclopropyl)methylamino]-4-(trifluoromethyl)-3-pyridyl]-4-[(2S)-2-methylpyrrolidine-1-carbonyl]thiazole-2-carboxamide] |
